US12479791B2, “Cationic lipid” (Takeda Pharmaceutical Company Limited, priority 2018, dated 2025)

Experiments:
[1] = tested on: FVII gene; assay: Hepatic FVII gene knockdown in CCl4 hepatic fibrosis mouse model; assay type: in vivo; conditions: male Balb/c mouse, Col1a1 siRNA + FVII siRNA 0.1 + 0.1 mg/kg intravenous, liver 4 days after administration, qPCR normalized with GAPDH
Experimental: (§1) The Col1a1 siRNA-encapsulated lipid nanoparticle was administered at 0.1 mg/kg into the orbital plexus of the vein of each 8-week-old male Balb/c mouse. 3 hours later, CCl4 mixed with corn oil was orally administered at a dose of 0.1 mL/kg (10 mL/kg) by forced single-dose administration (n=6 in each group). 4 days after the administration of the siRNA-encapsulated lipid nanoparticle, the liver was collected from the mouse euthanized under anesthesia, followed by gene expression analysis by quantitative PCR. The Col1a1 gene expression level and the FVII gene expression level were normalized with the expression level of GAPDH. The amount of decrease in Col1a1 gene expression as compared with a siRNA non-administration group was regarded as the rate of knockdown. In mice intravenously given the siRNA-encapsulated lipid nanoparticle formed using the compound of the present invention, the knockdown of the activated stellate cell marker gene Col1a1 gene was strongly observed, as compared with the rate of knockdown of the hepatic parenchymal cell marker gene FVII.

[2] = Analysis of luciferase mRNA-encapsulated lipid nanoparticle (Production Example 2); assay type: physicochemical; conditions: for Rate of encapsulation / Average particle size: luciferase mRNA lipid nanoparticle; for mRNA concentration: luciferase mRNA lipid nanoparticle dispersion after dialysis and filtration; for Average particle size: cationic lipid:DPPC:cholesterol:GS-020=60:10.6:28:1.4
Source text: (§2) The particle size of the lipid particle (in the composition) can be measured by a known approach. For example, the particle size can be calculated as a Z-average particle size by the cumulant analysis of an autocorrelation function using a particle size measurement apparatus Zetasizer Nano ZS (Malvern Instruments) based on a dynamic light scattering measurement technique. The particle size (average particle size) of the lipid particle (in the composition) is, for example, 10 to 200 nm, preferably 60 to 170 nm.
(§3) The concentration and rate of encapsulation of the nucleic acid (e.g., siRNA or mRNA) in the composition of the present invention can be measured by a known approach. For example, the nucleic acid is fluorescently labeled using Quant-iT™ RiboGreen® (Invitrogen Corp.), and the fluorescence intensity can be measured to determine the concentration and the rate of encapsulation. The concentration of the nucleic acid in the composition can be calculated using a calibration curve prepared from aqueous nucleic acid solutions having known concentrations. The rate of encapsulation can be calculated on the basis of the difference in fluorescence intensity between the presence and absence of addition of Triton-X 100 (surfactant for disrupting the lipid particle). The concentration of the nucleic acid in the composition refers to the total concentration of a nucleic acid encapsulated in the lipid particle and an unencapsulated nucleic acid. The rate of encapsulation refers to the ratio of the nucleic acid encapsulated in the lipid particle to all nucleic acids in the composition.
A lipid mixture (cationic lipid:DPPC:cholesterol:GS-020=60:10.6:28:1.4, molar ratio) was dissolved in 90% of EtOH and 10% of water to obtain an 8.5 mg/ml lipid solution. Luciferase mRNA (TriLink BioTechnologies, Inc.) was dissolved in a 10 mM 2-morpholinoethanesulfonic acid (MES) buffer solution (pH 4.0) to obtain a 0.22 mg/ml nucleic acid solution. The obtained lipid solution and nucleic acid solution were mixed at a flow rate ratio of 3 ml/min:6 ml/min at room temperature using NanoAssemblr apparatus (Precision NanoSystems Inc.) to obtain a dispersion containing a composition. The obtained dispersion was dialyzed against water at room temperature for 1 hour and against PBS at 4° C. for 48 hours using Slyde-A-Lyzer (molecular weight cutoff: 20 K, Thermo Fischer Scientific Inc.). Subsequently, the dialysate was filtered through a 0.2 μm syringe filter (Iwaki) and preserved at 4° C.

[3] = tested on: human colorectal cancer-derived cell line HCT116; assay: Transfection of cultured cell with mRNA (luciferase luminescence); assay type: cell-based; conditions: 10 ng luciferase mRNA, 24 hours
Experimental: A human colorectal cancer-derived cell line HCT116 was cultured at a cell density of 6000 cells/well in a 96-well plate. 24 hours later, 10 μl of the lipid particle containing 10 ng of luciferase mRNA was added to the medium. 24 hours after the addition of mRNA, a reagent of Picagene LT2.0 kit (Toyobo Co., Ltd.) was added to the culture plate of HCT116. The luminescence (count per sec (cps)) of luciferase was measured using a luminescence plate reader EnVision (PerkinElmer, Inc.).

[4] = tested on: Col1a1 gene; assay: Hepatic collagen 1a1 gene knockdown in CCl4 hepatic fibrosis mouse model; assay type: in vivo; conditions: male Balb/c mouse, Col1a1 siRNA + FVII siRNA 0.1 + 0.1 mg/kg intravenous, liver 4 days after administration, qPCR normalized with GAPDH, vs siRNA non-administration group
Experimental: as §1

[5] = Analysis of Col1a1 siRNA + FVII siRNA-encapsulated lipid nanoparticle (Production Example 3); assay type: physicochemical; conditions: for Rate of encapsulation / Particle size: Col1a1 siRNA + FVII siRNA lipid nanoparticle; for Particle size: cationic lipid:DPPC:cholesterol:GS-020=60:10.6:28:1.4; for Col1a1 siRNA + FVII siRNA concentration: lipid nanoparticle dispersion after dialysis and filtration
Source text: as §2, §3
A lipid mixture (cationic lipid:DPPC:cholesterol:GS-020=60:10.6:28:1.4, molar ratio) was dissolved in 90% of EtOH and 10% of a 25 mM acetate buffer solution (pH 4.0) to obtain a 7.4 mg/ml lipid solution. siRNA against collagen 1a1 (Col1a1) and siRNA against factor VII (FVII) were dissolved in equal weights in a 25 mM acetate buffer solution (pH 4.0) to obtain a 0.15 mg/ml nucleic acid solution. The sequences of Col1a1 siRNA and FVII siRNA were quoted from Hepatology, […], No. 4, 2015, and Silence, Vol. 1, No. 16, 2010, respectively. The obtained lipid solution and nucleic acid solution were mixed at a flow rate ratio of 1 ml/min:5 ml/min using a microfluidic mixing apparatus NanoAssemblr (Precision NanoSystems Inc.) to obtain a dispersion containing a composition. The obtained dispersion was dialyzed against water at room temperature for 1 hour and against PBS at room temperature for 18 hours using Slyde-A-Lyzer (molecular weight cutoff: 20 K, Thermo Fischer Scientific Inc.). Subsequently, the dialysate was filtered through a 0.2 μm syringe filter (Iwaki) and preserved at 4° C. The siRNA-encapsulated lipid nanoparticle was very favorably formed using the compound of the present invention.

Rate of encapsulation [2] [%] | mRNA concentration [2] [µg/mL] | Average particle size [2] [nm] | Structure (SMILES) | Rate of FVII knockdown [1] [%] | Average luminescence (cps) of 3 wells ([3]; Table 10 (PBS control 293)) [cps] | Rate of Col1a1 knockdown [4] [%] | Rate of encapsulation [5] [%] | Particle size [5] [nm] | Col1a1 siRNA + FVII siRNA concentration [5] [µg/mL] | Average luminescence (cps) of 3 wells ([3]; Table 8 (PBS control 1293)) [cps] | Average luminescence (cps) of 3 wells ([3]; Table 7 (PBS control 413)) [cps] | Average luminescence (cps) of 3 wells ([3]; Table 9 (PBS control 80)) [cps] | Average luminescence (cps) of 3 wells ([3]; Table 6 (PBS control 1040)) [cps]
87 | 116 | 152 | CCCCCCCC(=O)OCC(COC(=O)CCCCCCC)(COC(=O)CCCCN(C)C)COC(=O)CCC(CCC)C(CCC)CCC (stereo not shown) [Example 17, 3-((5-(Dimethylamino)pentanoyl)oxy)-2,2-bis((octanoyloxy)methyl)propyl 4,5-dipropyloctanoate] |  | 7987 |  |  |  |  |  |  |  | 
99 | 103 | 77 | CCCCCCCC(=O)OCC(COC(=O)CCCCCCC)(COC(=O)CCC(CCCC)C(CCCC)CCCC)COC(=O)NCCCCN(C)C (stereo not shown) [Example 18, 3-(((4-(Dimethylamino)butyl)carbamoyl)oxy)-2,2-bis((octanoyloxy)methyl)propyl 4,5-dibutylnonanoate] |  | 12813 |  |  |  |  |  |  |  | 
 |  |  | CCCCCCCC(=O)OCC(COC(=O)CCCCCCC)(COC(=O)CCCN(C)C)COC(=O)CCC(CCCC)C(CCCC)CCCC (stereo not shown) [Example 19, 3-((4-(Dimethylamino)butanoyl)oxy)-2,2-bis((octanoyloxy)methyl)propyl 4,5-dibutylnonanoate] | 31 |  | 71 | 96 | 89 | 112 |  |  |  | 
94 | 77 | 96 | CCCCCCCC(=O)OCC(COC(=O)CCCCN(C)C)(COC(=O)CC(CCCCC)CCCCC)COC(=O)CC(CCCCC)CCCCC [Example 9] |  |  |  |  |  |  |  | 63493 |  | 
99 | 127 | 164 | CCCCCC(=O)OCC(COC(=O)CCCCC)(COC(=O)CCCCN(C)C)COC(=O)CCC(CCCC)C(CCCC)CCCC (stereo not shown) [Example 15, 3-((5-(Dimethylamino)pentanoyl)oxy)-2,2-bis((hexanoyloxy)methyl)propyl 4,5-dibutylnonanoate] |  | 3293 |  |  |  |  |  |  |  | 
93 | 160 | 134 | CCCCCC(=O)OCC(COC(=O)CCCCC)(COC(=O)CCCCN(C)C)COC(=O)CCC(CCCCC)C(CCCCC)CCCCC (stereo not shown) [Example 12, 3-((5-(Dimethylamino)pentanoyl)oxy)-2,2-bis((hexanoyloxy)methyl)propyl 4,5-dipentyldecanoate] |  |  |  |  |  |  |  |  | 62587 | 
91 | 97 | 103 | CCCCCCCC(=O)OCC(COC(=O)CCCCCN(C)C)(COC(=O)C(CCCCCC)CCCCCC)COC(=O)C(CCCCCC)CCCCCC [Example 8] |  |  |  |  |  |  |  |  |  | 381693

Structure (SMILES) | Rate of encapsulation [2] [%] | mRNA concentration [2] [µg/mL] | Average particle size [2] [nm] | Rate of FVII knockdown [1] [%] | Average luminescence (cps) of 3 wells ([3]; Table 10 (PBS control 293)) [cps] | Rate of Col1a1 knockdown [4] [%] | Rate of encapsulation [5] [%] | Particle size [5] [nm] | Col1a1 siRNA + FVII siRNA concentration [5] [µg/mL] | Average luminescence (cps) of 3 wells ([3]; Table 8 (PBS control 1293)) [cps] | Average luminescence (cps) of 3 wells ([3]; Table 7 (PBS control 413)) [cps] | Average luminescence (cps) of 3 wells ([3]; Table 9 (PBS control 80)) [cps] | Average luminescence (cps) of 3 wells ([3]; Table 6 (PBS control 1040)) [cps]
CCCCCCCCCC(=O)OCC(COC(=O)CCCCCCCCC)(COC(=O)CCCCN(C)C)COC(=O)CCC(CCC)C(CCC)CCC (stereo not shown) [Example 16, 2-(((5-(Dimethylamino)pentanoyl)oxy)methyl)-2-(((4,5-dipropyloctanoyl)oxy)methyl)propane-1,3-diyl didecanoate] | 94 | 134 | 109 | 15 | 141560 | 74 | 96 | 103 | 124 |  |  |  | 
CCCCCCCC(=O)OCC(COC(=O)CCCCCCC)(COC(=O)CCCCCN(C)C)COC(=O)CCC(CCCC)C(CCCC)CCCC (stereo not shown) [Example 11, 3-((6-(Dimethylamino)hexanoyl)oxy)-2,2-bis((octanoyloxy)methyl)propyl 4,5-dibutylnonanoate] | 93 | 78 | 122 | 21 |  | 77 | 97 | 91 | 320 | 572560 |  |  | 
CCCCCCCC(=O)OCC(COC(=O)CCCCCCC)(COC(=O)CCCCN(C)C)COC(=O)CCC(CCCC)C(CCCC)CCCC (stereo not shown) [Example 10, 3-((5-(Dimethylamino)pentanoyl)oxy)-2,2-bis((octanoyloxy)methyl)propyl 4,5-dibutylnonanoate] | 96 | 83 | 123 | 0 | 112893 | 77 | 97 | 101 | 137 | 500747 |  | 176813 | 
CCCCCCCCCC(=O)OCC(COC(=O)CCCCCCCCC)(COC(=O)CCCCN(C)C)COC(=O)CCC(CCCC)C(CCCC)CCCC (stereo not shown) [Example 14, 2-(((4,5-Dibutylnonanoyl)oxy)methyl)-2-(((5-(dimethylamino)pentanoyl)oxy)methyl)propane-1,3-diyl didecanoate] | 94 | 134 | 88 | 16 | 178133 | 76 | 96 | 97 | 126 |  |  |  | 
